# In patent US20120301457A1 (priority 2010, published 2012):
# Target: recombinant mouse PrP (Mus musculus, UniProt P04925)
# Assay type: biochemical
row,Compound,ability to facilitate amplification and propagation of PrP^Sc
1,"CCCCCCCCCCCCCCCC(=O)OC[C@H](COP(=O)(O)OCCN)OC(=O)CCCCCCCCCCCNc1ccc([N+](=O)[O-])c2nonc12 [16:0-12:0 NBD PE, 1-palmitoyl-2-{12-[(7-nitro-2-1,3-benzoxadiazol-4-yl)amino]lauroyl}-sn-glycero-3-phosphoethanolamine]",successfully facilitated propagation
2,"CCCCCCCC/C=C\CCCCCCCC(=O)O[C@H](COC(=O)CCCCCCCCCCCCCCC)COP(=O)(O)OCCN [16:0-18:1 PE, 1-palmitoyl-2-oleoyl-sn-glycero-3-phosphoethanolamine]",successfully facilitated propagation
3,"CCCCCCCC/C=C\CCCCCCCC(=O)O[C@H](CO/C=C\CCCCCCCCCCCCCCCC)COP(=O)(O)OCCN [C18(Plasm)-18:1 PE, 1-(1Z-octadecenyl)-2-oleoyl-sn-glycero-3-phosphoethanolamine]",successfully facilitated propagation
4,"CCCCC/C=C\C/C=C\C/C=C\C/C=C\CCCC(=O)O[C@H](CO/C=C\CCCCCCCCCCCCCCCC)COP(=O)(O)OCCN [C18(Plasm)-20:4 PE, 1-(1Z-octadecenyl)-2-arachidonoyl-sn-glycero-3-phosphoethanolamine]",successfully facilitated propagation
5,cerebrosides,facilitate prion amplification to a lesser extent
6,phosphatidic acid,facilitate prion amplification to a lesser extent
7,phosphatidylcholine,facilitate prion amplification to a lesser extent
8,phosphatidylglycerol,facilitate prion amplification to a lesser extent
9,phosphatidylinositol,facilitate prion amplification to a lesser extent
10,phosphatidylserine,facilitate prion amplification to a lesser extent
11,sulfatides,facilitate prion amplification to a lesser extent
